Like-named read-outs stand apart in the source and are kept apart here.
What was measured:
[1] = Analgesic effect in the mouse hot plate and tail clip tests; type: in vivo
Procedure: (§1) The assessment of the analgesic effect of the instant compounds was conducted in the mouse hot plate and tail clip tests.
A mouse (adult male weighing 18-25 grams) is placed in a restraining cylinder on a hot plate with the temperature controlled at 55° ± 0.3° C. The reaction time of the mouse to lick a foot or jump is measured at 60, 40 and 20 minutes before and 30, 60, 90 and 120 minutes after administration of the test compound. The "normal" reaction time is measured as the median of the three pretreatment reaction times. A positive response consists of a reaction time greater than twice the normal time at any of the post treatment times. A dose of the test compound is considered active when 50 percent or more of the animals used show a positive response.
A special clip is applied to the base of the tail of the mouse (adult male weighing 18-25 grams) and the time for the animal to turn around to bite as it is measured. The sensitivity of each mouse is determined one-half hour prior to drug administration. Only those mice attempting to bite the clip are included in the experiment. The test compound is then administered intragastrically and the response to placement of the clip is determined at 30, 60, 90 and 120 minutes after treatment. A response is considered positive if the animal takes more than 2 times the pre-drug time to bite at the clip at any of these time intervals. […]

[2] = Castor oil induced diarrhea in the rat; type: in vivo, rat (adult Charles River male); settings: for Potency (relative to diphenoxylate hydrochloride): oral, diphenoxylate = 1.0
Procedure: CASTOR OIL INDUCED DIARRHEA IN THE RAT
Adult Charles River male rats were fasted in community cages for 24 hours prior to the test, with free access to water. The compound was administered intragastrically (suspended on 0.5% methylcellulose) one hour prior to the administration of castor oil at the dose of 1.0 ml/rat intragastrically. The rats were then observed for the presence or absence of diarrhea, at hourly intervals for up to 8 hours past administration of castor oil. The median effective dose values at each hourly interval were calculated for the compound using the method of Berkson (1953). […] For example:
Comparative Oral Antidiarrheal Potency and Duration of 1-(3,3,3-triphenylpropyl)-4-phenyl-4-piperidinemethanol hydrochloride (a) to Diphenoxylate hydrochloride in the Rat Castor Oil Diarrhea Test

[3] = Mouse tail clip test (analgesia); type: in vivo; settings: at 100 and 30 mpk
Procedure: as §1
A special clip is applied to the base of the tail of the mouse (adult male weighing 18-25 grams) and the time for the animal to turn around to bite as it is measured. The sensitivity of each mouse is determined one-half hour prior to drug administration. Only those mice attempting to bite the clip are included in the experiment. The test compound is then administered intragastrically and the response to placement of the clip is determined at 30, 60, 90 and 120 minutes after treatment. A response is considered positive if the animal takes more than 2 times the pre-drug time to bite at the clip at any of these time intervals. A test compound is considered active when 50 percent or more of the animals used show a positive response.

[4] = Rat2, oral (intragastric), rat, 2 hours after castor oil, read-out: ED50
[5] = oral (intragastric), rat, 3 hours after castor oil, read-out: ED50
[6] = oral (intragastric), rat, 4 hours after castor oil, read-out: ED50
[7] = oral (intragastric), rat, 5 hours after castor oil, read-out: ED50
[8] = oral (intragastric), rat, 6 hours after castor oil, read-out: ED50
[9] = oral (intragastric), rat, 7 hours after castor oil, read-out: ED50
[10] = oral (intragastric), rat, 8 hours after castor oil, read-out: ED50

Compound	ED50 [2, 4] [mg/kg]	ED50 [2, 5] [mg/kg]	ED50 [2, 6] [mg/kg]	ED50 [2, 7] [mg/kg]	ED50 [2, 8] [mg/kg]	ED50 [2, 9] [mg/kg]	ED50 [2, 10] [mg/kg]	further results
OCC1(c2ccccc2)CCN(CCC(c2ccccc2)(c2ccccc2)c2ccccc2)CC1 [1-(3,3,3-triphenylpropyl)-4-phenyl-4-piperidinemethanol]								analgesic effect [1]: very little analgesic effect; ability to inhibit gastrointestinal motility ([2]; intragastric, rat): very active
CCOC(=O)C1(c2ccccc2)CCN(CCC(C#N)(c2ccccc2)c2ccccc2)CC1 [Diphenoxylate, reference compound]	0.22	0.36	0.71	1.21	1.62	1.85	1.93	
Cl.OCC1(c2ccccc2)CCN(CCC(c2ccccc2)(c2ccccc2)c2ccccc2)CC1 [(a), 1-(3,3,3-triphenylpropyl)-4-phenyl-4-piperidinemethanol hydrochloride]	0.14	0.18	0.24	0.28	0.28	0.28	0.35	Potency (relative to diphenoxylate hydrochloride) ([2]; rat, 2 hours after castor oil): 1.35; Potency (relative to diphenoxylate hydrochloride) ([2]; rat, 3 hours after castor oil): 2.25; Potency (relative to diphenoxylate hydrochloride) ([2]; rat, 4 hours after castor oil): 3.25; Potency (relative to diphenoxylate hydrochloride) ([2]; rat, 5 hours after castor oil): 4.33; Potency (relative to diphenoxylate hydrochloride) ([2]; rat, 6 hours after castor oil): 5.71; Potency (relative to diphenoxylate hydrochloride) ([2]; rat, 7 hours after castor oil): 6.44; Potency (relative to diphenoxylate hydrochloride) ([2]; rat, 8 hours after castor oil): 5.42
CCOC(=O)C1(c2ccccc2)CCN(CCC(c2ccccc2)(c2ccccc2)c2ccccn2)CC1 [ethyl 1-[3,3-diphenyl-3-(2-pyridyl)propyl]-4-phenyl-4-piperidinecarboxylate]								analgesia (mouse tail clip test) [3]: weak analgesia; ED50 ([2]; Rattus norvegicus, po, 2 h, read-out: ED50 2 hrs. post castor oil): 0.04 mg/kg
